Test results: PubChem BioAssay AID2060622 (Molecular Pharmacology Branch, DTP, NCI, 2025)

Test system: 242566-281-R-J2-PDC complex spheroid viability
Test: Anticancer human tumor 242566-281-R-J2-PDC patient-derived pancreatic carcinoma cell line growth inhibition [CLK]
Conditions: for IC50: curve of first compound; for viability, T/C: stronger effect = lower value
Source text: A high-throughput screen of multi-cell type tumor spheroids was designed to identify active combinations of […] and targeted small molecules. Complex spheroids include a stromal component modeled by human endothelial cells (HUVEC) and fibroblasts modeled by human mesenchymal stem cells (MSCs). The concentration ranges selected for each drug and investigational agent were based upon clinically achievable concentrations if the clinical Cmax of the agent was known.
Compounds. The drugs and investigational agents: cirtuvivint (SM08502; NSC835563), CC-671 (NSC850746), vemurafenib (NSC761431), tapotoclax (NSC804041), sotorasib (NSC818433), adagrasib (NSC831453), MRTX-1133 (NSC836407), BAY2416964 (NSC825713), copanlisib (NSC816437), inavolisib (NSC800729), abemaciclib (NSC768073), osimertinib (NSC779217), entinostat (NSC756642), eltanexor (KPT-8602, NSC794443), venetoclax (NSC766270), ceralasertib (NSC777638), bortezomib (NSC756655), olaparib (NSC753686), talazoparib (NSC767125), alisertib (NSC759677), peposertib (NSC802822), gemcitabine (NSC613327), 5-fluorouracil (NSC19893), SN-38 (NSC673596), oxaliplatin (NSC266046), paclitaxel (NSC125973), and doxorubicin (NSC123127), were obtained from the National Cancer Institute (NCI) Developmental Therapeutics Program Chemical Repository. The FDA-approved anticancer drug set is available from the Developmental Therapeutics Program at https://dtp.cancer.gov/organization/dscb/obtaining/available plates.htm. […] The stock solutions were prepared in dimethyl sulfoxide (DMSO, Sigma-Aldrich, St. Louis, MO, cat. D2650), except for the platinum complexes which were prepared in saline (Quality Biological, Gaithersburg, MD, cat. 114-055-101), at 800-fold the tested concentration and stored at -70 degrees C prior to their use. All drugs and investigational agents were tested over a range starting from a high concentration at or near the clinical Cmax and decreasing in half-log increments. If the clinical Cmax for an agent had not been determined, the highest concentration tested was 10 microM.
Cell Culture. All cells were maintained in an incubator at 37 degrees C and 5% CO2 with 95% humidity. The PDC lines were cultured according to standard operating procedures established by the NCI PDMR. Briefly, all PDCs were thawed and cultured in Matrigel-coated flasks prepared with a working solution of 1X Ham's F-12 nutrient mix, without supplementation (Invitrogen, Waltham, MA, cat. 11765054), 100 U/mL penicillin-streptomycin (Invitrogen, cat. 15140122), and 2.5% Matrigel (Corning Inc., Corning, NY, cat. 354248) for the first three passages. The 947758-054-R-J2-PDC line was cultured in 6B/Colon 1A media, which includes advanced DMEM/F-12 (Thermo Fisher Scientific, cat. 12634028), 10 mM HEPES (Thermo Fisher Scientific, cat. 15630080), 1X GlutaMAX supplement (Thermo Fisher Scientific, cat. 35050061), 0.1 mg/mL primocin (InvivoGen, cat. ant-pm-2), 10% defined fetal bovine serum, heat inactivated (HyClone Laboratories Inc., cat. SH30070.03HI), 1.25 mM N-Acetyl-L-cysteine (Sigma-Aldrich, cat. A9165), 10 mM nicotinamide (Sigma-Aldrich, cat. N0636), 1X B-27 supplement (Thermo Fisher Scientific, cat. 17504044), 1X N-2 supplement (Thermo Fisher Scientific, cat. 17502048), and 10 microM Y-27632 dihydrochloride (Tocris Bioscience, cat. 1254). The 876862-298-R-J1-PDC was cultured in 6E media, which includes all 6B/Colon 1A media components plus 50% L-WRN conditioned media (ATCC, cat. CRL-3276), 50 ng/mL recombinant human EGF recombinant protein (hEGF; Thermo Fisher Scientific, cat. PHG0311), 10 ng/mL recombinant human fibroblast growth factor 10 (hGFG-10; PeproTech, cat. 100-26), 1 ng/mL recombinant human fibroblast growth factor 2 (hFGF-2; PeproTech, cat. 100-18B), and 1 µM prostaglandin E2 (PGE2; Tocris, cat. 2296). The 227483-062-R1-J1-PDC line was cultured in Panc media, containing all 6E components except hFGF-2, with the addition of 500 nM SB-431542 (Selleckchem, cat. S1067) and 10 nM gastrin (Tocris, cat. 3006). […]

[1] = second compound 0.0316 µM, first compound 0.0316 µM
[2] = second compound 0.0316 µM, first compound 0.1 µM
[3] = second compound 0.0316 µM, first compound 0.316 µM
[4] = second compound 0.0316 µM, first compound 1 µM
[5] = second compound 0.0316 µM, first compound 3.16 µM
[6] = second compound 0.0316 µM, first compound 10 µM
[7] = second compound 0.1 µM, first compound 0.0316 µM
[8] = second compound 0.1 µM, first compound 0.1 µM
[9] = second compound 0.1 µM, first compound 0.316 µM
[10] = second compound 0.1 µM, first compound 1 µM
[11] = second compound 0.1 µM, first compound 3.16 µM
[12] = second compound 0.1 µM, first compound 10 µM
[13] = second compound 0.316 µM, first compound 0.0316 µM
[14] = second compound 0.316 µM, first compound 0.1 µM
[15] = second compound 0.316 µM, first compound 0.316 µM
[16] = second compound 0.316 µM, first compound 1 µM
[17] = second compound 0.316 µM, first compound 3.16 µM
[18] = second compound 0.316 µM, first compound 10 µM
[19] = second compound 1 µM, first compound 0.0316 µM
[20] = second compound 1 µM, first compound 0.1 µM
[21] = second compound 1 µM, first compound 0.316 µM
[22] = second compound 1 µM, first compound 1 µM
[23] = second compound 1 µM, first compound 3.16 µM
[24] = second compound 1 µM, first compound 10 µM
[25] = second compound 3.16 µM, first compound 0.0316 µM
[26] = second compound 3.16 µM, first compound 0.1 µM
[27] = second compound 3.16 µM, first compound 0.316 µM
[28] = second compound 3.16 µM, first compound 1 µM
[29] = second compound 3.16 µM, first compound 3.16 µM
[30] = second compound 3.16 µM, first compound 10 µM
[31] = second compound 10 µM, first compound 0.0316 µM
[32] = second compound 10 µM, first compound 0.1 µM
[33] = second compound 10 µM, first compound 0.316 µM
[34] = second compound 10 µM, first compound 1 µM
[35] = second compound 10 µM, first compound 3.16 µM
[36] = second compound 10 µM, first compound 10 µM
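Further: spheroids exposed to compounds for 7 days before readout.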
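Wherever viability, T/C is given: 100% = DMSO vehicle control wells.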

Compound: C#Cc1c(F)ccc2cc(O)cc(-c3ncc4c(N5CC6CCC(C5)N6)nc(OCC56CCCN5CC(F)C6)nc4c3F)c12 (stereo unspecified) + CN1CCN(c2cc(C(=O)Nc3cc4cc(-c5cnn(C)c5)ccc4cn3)ccn2)CC1
- IC50 (second compound 0.0316 µM): 84.6 nM
- IC50 (second compound 0.1 µM): 65.3 nM
- IC50 (second compound 0.316 µM): < 31.6 nM
- IC50 (second compound 1 µM): < 31.6 nM
- IC50 (second compound 3.16 µM): < 31.6 nM
- IC50 (second compound 10 µM): < 31.6 nM
- viability, T/C [1]: 63.9%
- viability, T/C [2]: 47.5%
- viability, T/C [3]: 34%
- viability, T/C [4]: 29.4%
- viability, T/C [5]: 23.9%
- viability, T/C [6]: 17.1%
- viability, T/C [7]: 61.3%
- viability, T/C [8]: 42.9%
- viability, T/C [9]: 31.1%
- viability, T/C [10]: 19.9%
- viability, T/C [11]: 18.5%
- viability, T/C [12]: 15.5%
- viability, T/C [13]: 18.4%
- viability, T/C [14]: 13.2%
- viability, T/C [15]: 12.2%
- viability, T/C [16]: 10.6%
- viability, T/C [17]: 7.18%
- viability, T/C [18]: 3.44%
- viability, T/C [19]: 1.87%
- viability, T/C [20]: 1.39%
- viability, T/C [21]: 1.09%
- viability, T/C [22]: 1.22%
- viability, T/C [23]: 1.43%
- viability, T/C [24]: 1.26%
- viability, T/C [25]: 2.9%
- viability, T/C [26]: 2.24%
- viability, T/C [27]: 2.74%
- viability, T/C [28]: 2.35%
- viability, T/C [29]: 2.06%
- viability, T/C [30]: 1.51%
- viability, T/C [31]: 1.01%
- viability, T/C [32]: 0.76%
- viability, T/C [33]: 0.69%
- viability, T/C [34]: 0.78%
- viability, T/C [35]: 0.71%
- viability, T/C [36]: 0.34%

Compound: C=C(F)C(=O)N1CCN(c2nc(OCC3CCCN3C)nc3c2CCN(c2cccc4cccc(Cl)c24)C3)CC1CC#N (stereo unspecified) + CN1CCN(c2cc(C(=O)Nc3cc4cc(-c5cnn(C)c5)ccc4cn3)ccn2)CC1
- IC50 (second compound 0.0316 µM): 4990 nM
- IC50 (second compound 0.1 µM): 4260 nM
- IC50 (second compound 0.316 µM): < 31.6 nM
- IC50 (second compound 1 µM): < 31.6 nM
- IC50 (second compound 3.16 µM): < 31.6 nM
- IC50 (second compound 10 µM): < 31.6 nM
- viability, T/C [1]: 84.6%
- viability, T/C [2]: 115%
- viability, T/C [3]: 104%
- viability, T/C [4]: 114%
- viability, T/C [5]: 82.7%
- viability, T/C [6]: 0.15%
- viability, T/C [7]: 103%
- viability, T/C [8]: 95.9%
- viability, T/C [9]: 90.9%
- viability, T/C [10]: 90.2%
- viability, T/C [11]: 67.7%
- viability, T/C [12]: 0.87%
- viability, T/C [13]: 42.9%
- viability, T/C [14]: 38.7%
- viability, T/C [15]: 50.4%
- viability, T/C [16]: 41.3%
- viability, T/C [17]: 25.2%
- viability, T/C [18]: 0.12%
- viability, T/C [19]: 4.94%
- viability, T/C [20]: 4.71%
- viability, T/C [21]: 4.65%
- viability, T/C [22]: 4.68%
- viability, T/C [23]: 3.14%
- viability, T/C [24]: 0.13%
- viability, T/C [25]: 7.96%
- viability, T/C [26]: 8.51%
- viability, T/C [27]: 7.38%
- viability, T/C [28]: 6.75%
- viability, T/C [29]: 4.99%
- viability, T/C [30]: 0.12%
- viability, T/C [31]: 2.22%
- viability, T/C [32]: 2.75%
- viability, T/C [33]: 2.19%
- viability, T/C [34]: 1.43%
- viability, T/C [35]: 0.37%
- viability, T/C [36]: 0.24%

Compound: CC(CO)NC(=O)c1cc(-c2ccc(Cl)cc2)nn(-c2cnn(C)c2)c1=O (stereo unspecified) + CN1CCN(c2cc(C(=O)Nc3cc4cc(-c5cnn(C)c5)ccc4cn3)ccn2)CC1
- IC50 (second compound 0.0316 µM): > 10000 nM
- IC50 (second compound 0.1 µM): > 10000 nM
- IC50 (second compound 0.316 µM): < 31.6 nM
- IC50 (second compound 1 µM): < 31.6 nM
- IC50 (second compound 3.16 µM): < 31.6 nM
- IC50 (second compound 10 µM): < 31.6 nM
- viability, T/C [1]: 95.6%
- viability, T/C [2]: 117%
- viability, T/C [3]: 129%
- viability, T/C [4]: 106%
- viability, T/C [5]: 101%
- viability, T/C [6]: 93.6%
- viability, T/C [7]: 93.5%
- viability, T/C [8]: 104%
- viability, T/C [9]: 87.3%
- viability, T/C [10]: 94%
- viability, T/C [11]: 101%
- viability, T/C [12]: 72.3%
- viability, T/C [13]: 38.2%
- viability, T/C [14]: 43%
- viability, T/C [15]: 39.9%
- viability, T/C [16]: 36.5%
- viability, T/C [17]: 41.5%
- viability, T/C [18]: 37.6%
- viability, T/C [19]: 4.91%
- viability, T/C [20]: 5.11%
- viability, T/C [21]: 5.14%
- viability, T/C [22]: 5.04%
- viability, T/C [23]: 4.52%
- viability, T/C [24]: 4.45%
- viability, T/C [25]: 6.35%
- viability, T/C [26]: 7.68%
- viability, T/C [27]: 8.66%
- viability, T/C [28]: 7.21%
- viability, T/C [29]: 7.5%
- viability, T/C [30]: 6.89%
- viability, T/C [31]: 2.09%
- viability, T/C [32]: 2.51%
- viability, T/C [33]: 2.07%
- viability, T/C [34]: 2.91%
- viability, T/C [35]: 2.05%
- viability, T/C [36]: 0.93%
